Reference: patent US4609496A, “Steroid esters of N-(2-halogenoethyl)-N-nitroso-carbamoyl-amino acids and peptides thereof, as well as methods for preparing them” (Stiftung Deutsches Krebsforshungszentrum, priority 1982, dated 1986)

How the values were obtained:
[1] = Toxicity of the compounds (LD50); assay type: in vivo; details: for LD50 at 2160 h: in vivo, period of observation: 90 days (printed with the cortisone ester)
Excerpt: Data on the toxicity of the compounds

rat leukemia L 5222 = assay: Therapy test using the model of rat leukemia L 5222; assay type: in vivo; details: for optimal dose: L 5222
Excerpt: In the therapy test using the model of rat leukemia L 5222 (Ivankovic, Zeller, Leukamie L 5222 des Rattenstammes BD IX. Eine durch Athylnitrosoharnstoff induzierte monozytar-myeloische, transplantierbare Form fur zytochemische und chemotherapeutische Studien [Leukemia L 5222 of Rats of Stock BD IX. A monocytic-myeloid, transplantable form induced by ethylnitrosourea for cytochemical and chemotherapeutic studies]. Blut [Blood], 28; 288-292, 1974 and Zeller, Ivankovic, Schmahl, Cancer Research, Vol. 35, 1168-1174, 1975), the cortisone conjugate has good activity. At 176 mg/kg, the total median (replicated experiment!) at 65 days was 3 cured animals out of 6, while with CNU alanine in an equimolar dose with cortisone no cures were attained, with a median survival time of 20 days.

estrogen receptor = estrogen receptor (Homo sapiens, UniProt P03372); assay: biochemical; details: for affinity relative to estradiol (100%): parameter of 50% bonding inhibition of 3H-tagged estradiol
Chain of estrogen receptor (P03372 whole entry): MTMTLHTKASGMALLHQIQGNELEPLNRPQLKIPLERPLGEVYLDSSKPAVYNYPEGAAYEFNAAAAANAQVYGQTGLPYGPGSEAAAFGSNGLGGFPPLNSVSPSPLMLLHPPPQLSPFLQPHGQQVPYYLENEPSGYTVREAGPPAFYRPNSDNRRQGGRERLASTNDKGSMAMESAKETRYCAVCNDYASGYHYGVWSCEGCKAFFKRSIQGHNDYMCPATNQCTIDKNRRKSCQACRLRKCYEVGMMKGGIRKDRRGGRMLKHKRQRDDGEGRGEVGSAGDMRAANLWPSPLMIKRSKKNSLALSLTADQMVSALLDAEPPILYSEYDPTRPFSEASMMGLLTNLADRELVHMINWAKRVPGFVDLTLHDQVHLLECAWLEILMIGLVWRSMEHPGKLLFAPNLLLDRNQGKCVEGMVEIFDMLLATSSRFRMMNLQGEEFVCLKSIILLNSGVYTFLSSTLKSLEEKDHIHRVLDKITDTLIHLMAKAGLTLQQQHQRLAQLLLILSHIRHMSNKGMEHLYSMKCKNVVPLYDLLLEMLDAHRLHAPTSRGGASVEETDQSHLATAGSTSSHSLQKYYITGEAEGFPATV
Excerpt: The estrogen-linked compounds were subjected to an estrogen receptor test (Lebercytosol) (Kranzfelder, Schneider, von Angerer, Schoneberger, J. Cancer Research Chim. Oncol. 97, 167-186 (1980)).

SMILES: CC(NC(=O)N(CCCl)N=O)C(=O)OCC(=O)C1(O)CCC2C3CCC4=CC(=O)CCC4(C)C3C(=O)CC21C [N-(2-chloroethyl)-N-nitroso-carbamoyl-L-alanine-cortisone-21-ester]
- LD50 at 2160 h [1]: 220 to 280 mg/kg
- reduction in toxicity by linking CNU alanine with cortisone ([1]; relative to CNU alanine): sharp reduction in toxicity (by approximately threefold)
- cured animals (rat leukemia L 5222; 176 mg/kg): 3 cured animals out of 6
- total median (survival) (rat leukemia L 5222; 176 mg/kg, replicated experiment): 65 days
- activity in therapy test (rat leukemia L 5222; rat leukemia L 5222): good activity

SMILES: C[C@H](NC(=O)N(CCCl)N=O)C(=O)Oc1ccc2c(c1)CC[C@@H]1[C@@H]2CC[C@]2(C)C(=O)CC[C@@H]12 [N-(2-chloroethyl)-N-nitroso-carbamoyl-L-alanine-estrone-ester]
- optimal dose (rat leukemia L 5222): 351 mg/kg
- toxicity measured in tumor-bearing animals (rat leukemia L 5222; compared with the cortisone derivative): even lower than with the cortisone derivative
- total median (survival) (rat leukemia L 5222; optimal dose 351 mg/kg): 43 days
- IC50 (estrogen receptor): 190 nM
- affinity relative to estradiol (100%) (estrogen receptor): 4%

SMILES: C[C@H](NC(=O)N(CCCl)N=O)C(=O)Oc1ccc2c(c1)CC[C@@H]1[C@@H]2CC[C@]2(C)[C@@H](O)CC[C@@H]12 [N-(2-chloroethyl)-N-nitroso-carbamoyl-L-alanine-estradiol-3-ester]
- optimal dose (rat leukemia L 5222): 279 mg/kg
- cures (rat leukemia L 5222; optimal dose 279 mg/kg): 2 cures
- median survival time (rat leukemia L 5222; optimal dose 279 mg/kg): 49 days
- IC50 (estrogen receptor): 50 nM
- affinity relative to estradiol (100%) (estrogen receptor): 16%

SMILES: C[C@H](NC(=O)N(CCCl)N=O)C(=O)O [CNU alanine, reference compound]
- LD50 at 2160 h [1]: 40 to 50 mg/kg
- cures (rat leukemia L 5222; equimolar dose with cortisone): no cures
- median survival time (rat leukemia L 5222; equimolar dose with cortisone): 20 days
